# Assay results reported in publication PMC4335503, “Novel Inhibitors of Cholesterol Degradation in Mycobacterium tuberculosis Reveal How the Bacterium’s Metabolism Is Constrained by the Intracellular Environment” (PLoS Pathogens, 2015).
# Legend:
# [1] = biological target: T1, PrpC (2-methylcitrate synthase, Rv1131) (Mycobacterium tuberculosis, UniProt I6Y9Q3); assay: biochemical
# T1 construct: full-length, C-terminal 6x-His tag
# [2] = biological target: HsaAB (HsaA, of the two-component flavin-dependent hydroxylase) (Mycobacterium tuberculosis, UniProt P9WJA1); assay: biochemical
# HsaAB (HsaA, of the two-component flavin-dependent hydroxylase), sequence (P9WND9 whole entry): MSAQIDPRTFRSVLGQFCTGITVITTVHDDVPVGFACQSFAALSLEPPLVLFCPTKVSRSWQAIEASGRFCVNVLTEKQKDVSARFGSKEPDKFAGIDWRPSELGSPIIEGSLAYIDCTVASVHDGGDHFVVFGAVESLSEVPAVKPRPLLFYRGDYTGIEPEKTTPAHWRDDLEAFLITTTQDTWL
# HsaAB (HsaA, of the two-component flavin-dependent hydroxylase), sequence (P9WJA1 whole entry): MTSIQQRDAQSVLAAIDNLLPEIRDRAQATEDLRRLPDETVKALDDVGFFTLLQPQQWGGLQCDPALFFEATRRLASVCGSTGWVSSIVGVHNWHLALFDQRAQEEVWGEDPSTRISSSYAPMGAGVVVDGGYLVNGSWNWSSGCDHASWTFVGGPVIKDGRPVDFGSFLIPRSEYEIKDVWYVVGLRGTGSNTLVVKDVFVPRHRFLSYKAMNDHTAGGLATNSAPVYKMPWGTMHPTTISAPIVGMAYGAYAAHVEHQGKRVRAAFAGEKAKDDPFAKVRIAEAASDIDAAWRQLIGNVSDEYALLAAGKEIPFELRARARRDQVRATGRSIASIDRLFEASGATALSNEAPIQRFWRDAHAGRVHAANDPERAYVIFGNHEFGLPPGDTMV
# T1 sequence (I6Y9Q3 whole entry): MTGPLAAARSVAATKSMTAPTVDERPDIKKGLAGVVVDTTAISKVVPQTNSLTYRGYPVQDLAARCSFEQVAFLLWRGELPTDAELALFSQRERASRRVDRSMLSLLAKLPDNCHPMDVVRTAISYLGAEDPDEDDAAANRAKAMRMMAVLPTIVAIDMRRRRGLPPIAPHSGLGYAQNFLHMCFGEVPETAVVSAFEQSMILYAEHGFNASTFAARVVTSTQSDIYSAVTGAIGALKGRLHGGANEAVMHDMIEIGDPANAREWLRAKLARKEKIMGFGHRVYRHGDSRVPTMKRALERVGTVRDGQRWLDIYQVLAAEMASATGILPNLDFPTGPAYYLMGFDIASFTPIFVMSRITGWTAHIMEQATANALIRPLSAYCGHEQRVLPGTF
SMILES,IC50 [1],IC50 [2]
"Cc1nnc(NS(=O)(=O)c2ccc(NC(=O)c3cc(-c4ccc(Cl)cc4)oc3C(F)(F)F)cc2)s1 [V-13–009920, 5-(4-chlorophenyl)-N-(4-(N-(5-methyl-1,3,4-thiadiazol-2-yl)sulfamoyl)phenyl)-2-(trifluoromethyl)furan-3-carboxamide]",4 ± 1.1 µM,–
"Cc1noc(C)c1C(=O)Nc1nnc(-c2ccccc2)s1 [V-13–011503, 3,5-dimethyl-N-(5-phenyl-1,3,4-thiadiazol-2-yl)-1,2-oxazole-4-carboxamide]",–,11 ± 2 µM
"Cc1cc(=O)n2[nH]c(-c3ccc(F)cc3)nc2n1 [V-13–012725, 2-(4-fluorophenyl)-5-methyl-1H-[1,2, 4]triazolo[1,5-a]pyrimidin-7-one]",–,5 ± 0.8 µM
